Measured values taken from patent US20240165196A1, “Beta-Lactamase Inhibitors” (VIB VZW, priority 2021, published 2024).
≈ marks a conversion by molar mass, not a printed value.

Legend:
Format in all cases: cell-based
E. coli NDM ? a = assay: antimicrobial susceptibility testing, VITEK 2 AST Cards; as to Interpretation: key: S, susceptible; I, intermediate; R, resistant
Description: (§1) Beta-lactamase clinical samples were collected from University Hospitals Leuven and tested for ESBL production using the disk diffusion method^61. The beta-lactamase reference isolates were purchased from IHMA International Health management associates. Bacterial strains were cultivated in Mueller Hinton Broth (MHB, Difco) at 37° C. Whenever required growth media were supplemented with appropriate antibiotic to the medium or plates (kanamycin 30 μg/mL, L-arabinose 0.5 mg/mL, and IPTG 1 mM/mL). Escherichia coli BL21 (Thermo Fisher Scientific, Belgium) was used for cloning and plasmid amplification. For selection of antibiotic resistance colonies, E. coli carrying plasmids was grown in LB agar plates supplemented with the relevant antibiotic. Bacterial CFU counting was done on blood agar plates (BD Biosciences, Belgium) or MHA agar plates. Species identification and antibiograms for all clinical isolates were performed using MALDI-Tof and VITEK® 2 automated system (BioMérieux, France).

E. coli SH ? (APHA) = assay: as above
Description: as §1

E. coli NDM ? b = assay: as above
Description: as §1

E. coli TEM-206 = assay: as above
Description: as §1

E. coli TEM-1 ? = tested on: E. coli TEM-1 ?
Description: as §1

E. coli TEM-104 = tested on: E. coli TEM-104; as to Interpretation: key: S, susceptible; I, intermediate; R, resistant
Description: as §1

E. coli TEM-148 = tested on: E. coli TEM-148; as to Interpretation: key: S, susceptible; I, intermediate; R, resistant
Description: as §1

E. coli TEM-30 = tested on: E. coli TEM-30; as to Interpretation: key: S, susceptible; I, intermediate; R, resistant
Description: as §1
For Interpretation in this document: key: S, susceptible; I, intermediate; R, resistant.

Row | SMILES | Interpretation (E. coli NDM ? a) | MIC (E. coli NDM ? a) [µg/mL] | Interpretation (E. coli SH ? (APHA)) | Interpretation (E. coli NDM ? b) | MIC (E. coli NDM ? b) [µg/mL] | Interpretation (E. coli TEM-206) | MIC (E. coli TEM-206) [µg/mL] | Interpretation (E. coli TEM-1 ?) | MIC (E. coli TEM-1 ?) [µg/mL] | Interpretation (E. coli TEM-104) | MIC (E. coli TEM-104) [µg/mL] | Interpretation (E. coli TEM-148) | MIC (E. coli TEM-148) [µg/mL] | Interpretation (E. coli TEM-30) | MIC (E. coli TEM-30) [µg/mL] | MIC (E. coli SH ? (APHA)) [µg/mL]
1 | CO/N=C(\C(=O)N[C@@H]1C(=O)N2C(C(=O)OC(C)OC(C)=O)=C(COC(N)=O)CS[C@H]12)c1ccco1 (stereo partly shown) | R | ≥ 64 | R | R | ≥ 64 | R | ≥ 64 | R | ≥ 64 | S | 4 (≈ 7.84 µM) | R | ≥ 64 | R | ≥ 64 | 
2 | NCC[C@H](O)C(=O)N[C@@H]1C[C@H](N)[C@@H](O[C@H]2O[C@H](CN)[C@@H](O)[C@H](O)[C@H]2O)[C@H](O)[C@H]1O[C@H]1O[C@H](CO)[C@@H](O)[C@H](N)[C@H]1O [Amikacin] | S |  | S | S |  | S | ≤ 2 | S | ≤ 2 | S | ≤ 2 | S | ≤ 2 |  |  | 
3 | CC(C)(O/N=C(\C(=O)N[C@@H]1C(=O)N2C(C(=O)[O-])=C(C[n+]3ccccc3)CS[C@H]12)c1csc(N)n1)C(=O)O [C ? dime] | R | ≥ 64 | R | R | ≥ 64 | R | 16 (≈ 29.3 µM) | R | 16 (≈ 29.3 µM) | S | ≤ 1 |  | ≤ 1 |  | ≤ 1 | ≥ 64
4 | CO/N=C(\C(=O)N[C@@H]1C(=O)N2C(C(=O)[O-])=C(C[N+]3(C)CCCC3)CS[C@H]12)c1csc(N)n1 [C ? ime] | R | ≥ 64 | R | R | ≥ 64 | R | ≥ 64 | R | ≥ 64 | S | ≤ 1 |  | 2 (≈ 4.16 µM) |  | ≤ 1 | 16 (≈ 33.3 µM)
5 | CO[C@@]1(NC(=O)Cc2cccs2)C(=O)N2C(C(=O)O)=C(COC(N)=O)CS[C@@H]21 [C ? tin] |  |  |  |  |  | S | ≤ 4 | S |  |  |  |  |  |  |  | 
6 | CO/N=C(\C(=O)N[C@@H]1C(=O)N2C(C(=O)O)=C(COC(N)=O)CS[C@H]12)c1ccco1 [C ? xime] | R | ≥ 64 | R | R | ≥ 64 | R | ≥ 64 | R | ≥ 64 | S | 4 (≈ 9.43 µM) | R | ≥ 64 | R | ≥ 64 | 
7 | C[C@H]1COc2c(N3CCN(C)CC3)c(F)cc3c(=O)c(C(=O)O)cn1c23 [Levofloxacin] |  |  | S |  |  | R |  |  |  |  |  |  |  |  |  | 
8 | CO[C@@]1(NC(=O)C(C(=O)O)c2ccsc2)C(=O)N2[C@@H](C(=O)O)C(C)(C)S[C@@H]21 (stereo partly shown) [T ? cillin] |  |  |  |  |  | S |  |  |  |  |  |  |  |  |  | 
9 | CN(C)c1cc(NC(=O)CNC(C)(C)C)c(O)c2c1C[C@H]1C[C@H]3[C@H](N(C)C)C(O)=C(C(N)=O)C(=O)[C@@]3(O)C(O)=C1C2=O [Tig ? cycline] |  |  | S |  |  |  |  |  |  |  |  |  |  |  |  | 
10 | NC[C@H]1O[C@H](O[C@H]2[C@H](O)[C@@H](O[C@H]3O[C@H](CO)[C@@H](O)[C@H](N)[C@H]3O)[C@H](N)C[C@@H]2N)[C@H](N)C[C@@H]1O [Tobramycin] |  |  |  | S |  | S | ≤ 1 | S | ≤ 1 | S | ≤ 1 | S | ≤ 1 |  |  | 
